According to the RepoRT retention time repository (doi:10.1021/acs.analchem.1c00972):
Counter-ions that a name gives are not always drawn.

Tests used:
Conditions in all cases: stereoisomer not certain
[1] = RP, Waters ACQUITY UPLC BEH C18, 100 × 1 mm, 1.7 µm, 50 °C, 0.3 mL/min, estimated dead time 0.17 min; A: water + 10 mM ammonium bicarbonate; B: 10% water + 90% methanol + 10 mM ammonium bicarbonate; gradient (min/%B) 0/0 15/100 21/100 22/0 30/0
[2] = RP, Phenomenex Synergi Polar-RP, 100 × 3 mm, 2.5 µm, 40 °C, 0.4 mL/min, estimated dead time 1.1 min; A: water + 1 mM ammonium fluoride; B: methanol + 1 mM ammonium fluoride; C: acetonitrile; D: 50% isopropanol + 50% acetone; gradient (min/%B/%C/%D) 0/5/0/0 2/5/0/0 8/95/0/0 12/80/15/0 19/25/70/0 19.5/0/25/70 21.5/0/25/70 22.5/0/25/0 23/5/0/0
[3] = RP, Waters ACQUITY UPLC BEH C18, 100 × 1 mm, 1.7 µm, 50 °C, 0.3 mL/min, estimated dead time 0.17 min; A: water + 0.1% formic acid + 20 mM ammonium formate; B: methanol + 0.1% formic acid + 20 mM ammonium formate; gradient (min/%B) 0/0 15/100 21/100 22/0 30/0

| Structure (SMILES) | LC retention time [1] [min] | LC retention time [2] [min] | LC retention time [3] [min] |
| --- | --- | --- | --- |
| Oc1ccc(Cl)cc1Cc1ccccc1 [Chlorophene] | 15.9 | 11.2 | – |
| CCCCCCCCCCCCOS(=O)(=O)O [Dodecyl sulfate] | 16.4 | 9.67 | 16.2 |
| Oc1cccc2ccccc12 [1-Naphthol] | 12.7 | 10 | 12.5 |
| O=c1[nH]cc(F)c(=O)[nH]1 [5-Fluorouracil] | – | 2.09 | 7.72 |
| O=S(=O)(O)C(F)(F)C(F)(F)C(F)(F)C(F)(F)C(F)(F)C(F)(F)C(F)(F)C(F)(F)F [Perfluorooctanesulfonic acid] | 15.5 | 9.25 | – |
| CC(C)(c1ccccc1)c1ccc(O)cc1 [4-Cumylphenol] | 15.7 | 11.1 | – |
| CCOC(=O)c1ccc(O)cc1 [Ethylparaben] | 11.1 | 9.81 | 11.6 |
| O=c1[nH]c2ccccc2s1 [2-hydroxybenzothiazole] | 10.5 | 9.61 | 10.6 |
| CCC(C)C(=O)OC1CC(O)C=C2C=CC(C)C(CCC(O)CC(O)CC(=O)O)C21 (configuration not stated) [Pravastatin] | 12.1 | 9.42 | 13.3 |
| CC(C)N1C(=O)c2ccccc2NS1(=O)=O [Bentazone] | 7.66 | 7.2 | 11.5 |
| CC(=O)Nc1ccc(O)c(C(=O)O)c1 [N-Acetyl mesalazine] | 4.58 | 2.92 | 6.82 |
| O=C(O)C(F)(F)C(F)(F)C(F)(F)F [Perfluorobutanoic acid] | 7.16 | 2.91 | 7.57 |
| Oc1ccc(Cl)cc1Cc1cc(Cl)ccc1O [Dichlorophen] | 15.1 | 10.9 | 15.2 |
| N#Cc1nn(-c2c(Cl)cc(C(F)(F)F)cc2Cl)c(N)c1SC(F)(F)F [Fipronil sulfide] | 15.8 | 11 | 15.4 |
| Oc1ccccc1-c1ccccc1 [2-Phenylphenol] | 13.9 | 9.93 | – |
| CCCOC(=O)c1ccc(O)cc1 [Propylparaben] | 12.7 | 10.2 | 12.9 |
| Oc1c(Br)cc(Cl)cc1Cc1cc(Cl)cc(Br)c1O [Bromochlorophen] | 16.4 | 11.2 | 17.3 |
| Oc1ccc(Cl)cc1 [4-Chlorophenol] | 11.3 | 8.39 | – |
| CCCc1cc(=O)[nH]c(=S)[nH]1 [6-Propyl-2-thiouracil] | – | 8.14 | 7.69 |
| O=C(O)C(F)(F)C(F)(F)C(F)(F)C(F)(F)C(F)(F)F [Perfluorohexanoic acid] | 12.7 | 8.19 | 12.7 |
| Cc1ccc(C(C)C)c(O)c1 [Thymol] | 14.7 | 10.6 | – |
| O=S(=O)(O)NC1CCCCC1 [Cyclamate] | 6.33 | 2.74 | 6.54 |

| Structure (SMILES) | LC retention time [1] [min] | LC retention time [2] [min] | LC retention time [3] [min] |
| --- | --- | --- | --- |
| NS(=O)(=O)c1cc2c(cc1Cl)NCNS2(=O)=O [Hydrochlorothiazide] | 4.67 | 7.62 | 5.2 |
| CC(C)(c1cc(Br)c(O)c(Br)c1)c1cc(Br)c(O)c(Br)c1 [Tetrabromobisphenol A] | 14.6 | 11.7 | 16.6 |
| COc1ccc2c(c1)c(CC(=O)O)c(C)n2C(=O)c1ccc(Cl)cc1 [Indometacin] | – | 10.5 | 15.4 |
| O=C(O)C(F)(F)C(F)(F)C(F)(F)C(F)(F)C(F)(F)C(F)(F)C(F)(F)C(F)(F)C(F)(F)F [Perfluorodecanoic acid] | 16.1 | 9.39 | 15.9 |
| CC(C)C(=O)Nc1ccc([N+](=O)[O-])c(C(F)(F)F)c1 [Flutamide] | 14.3 | 10.7 | 14.1 |
| N#Cc1nn(-c2c(Cl)cc(C(F)(F)F)cc2Cl)c(N)c1C(F)(F)F [Fipronil desulfinyl] | 15.4 | 10.9 | 15.1 |
| Cc1cc(O)ccc1Cl [p-Chlorocresol] | 13 | 8.57 | – |
| O=C(O)C(F)(F)C(F)(F)C(F)(F)C(F)(F)C(F)(F)C(F)(F)C(F)(F)F [Perfluorooctanoic acid] | 14.8 | 8.97 | 14.7 |
| O=C(O)CCC(=O)c1ccc(F)cc1 [4-Fluorobenzoylpropionic acid] | 7.83 | 8.54 | 10.5 |
| Oc1ccc(Cc2ccc(O)cc2)cc1 [Bisphenol F] | 11.9 | 9.94 | – |
| CC(C)(O)c1ccccc1CCC(SCC1(CC(=O)O)CC1)c1cccc(C=Cc2ccc3ccc(Cl)cc3n2)c1 (configuration not stated) [Montelukast] | 16.6 | 11.9 | – |
| CC(C)(c1ccc(O)cc1)c1ccc(O)cc1 [Bisphenol A] | – | 10.3 | 18.3 |
| CCCCOC(=O)c1ccc(O)cc1 [Butylparaben] | 14 | 10.6 | – |
| O=[N+]([O-])c1ccc(O)cc1 [4-Nitrophenol] | 3.3 | 9.25 | 9.08 |
| O=S(=O)(O)c1nc2ccccc2s1 [2-Benzothiazolesulfonic acid] | – | 6.31 | – |
| O=c1[nH]c(=O)c2cn[nH]c2[nH]1 [Oxypurinol] | – | 2.44 | – |
| O=C(Nc1ccc(Cl)c(Cl)c1)c1cc(Cl)cc(Cl)c1O [Tetrachlorosalicylanilide] | 14.9 | 10.2 | 17.7 |
| O=C(O)Cc1ccccc1Nc1c(Cl)cccc1Cl [Diclofenac] | – | 10.1 | – |
| O=c1[nH]c(Cl)c(Cl)cc1Cl [356-Trichloro-2-pyridinol] | – | 9.23 | – |
| N#Cc1c(O)c(Cl)c(Cl)c(C#N)c1Cl [Chlorothalonil-4-hydroxy] | 11.8 | 9.06 | 12.3 |
| CCC1=C(C)CN(C(=O)NCCc2ccc(S(=O)(=O)NC(=O)NC3CCC(C)CC3)cc2)C1=O (configuration not stated) [Glimepiride] | – | 11.3 | – |
| CCc1cccc(C)c1N(C(=O)C(=O)O)C(C)COC (configuration not stated) [Metolachlor OA] | – | 8.42 | – |

| Structure (SMILES) | LC retention time [1] [min] | LC retention time [2] [min] | LC retention time [3] [min] |
| --- | --- | --- | --- |
| CCC(C)c1cc([N+](=O)[O-])cc([N+](=O)[O-])c1O (configuration not stated) [Dinoseb] | 12.4 | 10 | 15.5 |
| O=C1CN(N=Cc2ccc([N+](=O)[O-])o2)C(=O)N1 [Nitrofurantoin] | – | 8.69 | – |
| CC(C(=O)O)c1cccc(C(=O)c2ccccc2)c1 (configuration not stated) [Ketoprofen] | – | 9.75 | – |
| CCCCC(=O)N(Cc1ccc(-c2ccccc2-c2nn[nH]n2)cc1)C(C(=O)O)C(C)C (configuration not stated) [Valsartan] | – | 9.29 | – |
| CC(C)Cc1ccc(C(C)C(=O)O)cc1 (configuration not stated) [Ibuprofen] | – | 10.3 | 14.1 |
| CCc1cccc(C)c1N(C(=O)CS(=O)(=O)O)C(C)COC (configuration not stated) [Metolachlor ESA] | 12.1 | 8.57 | – |
| O=C(O)COc1ccc(Cl)cc1Cl [24-Dichlorophenoxyacetic acid] | – | 8.06 | – |
| N#Cc1nn(-c2c(Cl)cc(C(F)(F)F)cc2Cl)c(N)c1S(=O)C(F)(F)F (configuration not stated) [Fipronil] | – | 10.9 | – |
| CCC(=O)Nc1ccc(Cl)c(Cl)c1 [Propanil] | – | 10.6 | – |
| CC(C)(Oc1ccc(CCNC(=O)c2ccc(Cl)cc2)cc1)C(=O)O [Bezafibrate] | – | 9.33 | – |
| Oc1cccc2n[nH]nc12 [4-Hydroxybenzotriazole] | – | 7 | – |
| NS(=O)(=O)c1cc(C(=O)O)c(NCc2ccco2)cc1Cl [Furosemide] | – | 8.45 | – |
| CCOC(=O)C1=C(C)NC(C)=C(C(=O)OC)C1c1cccc([N+](=O)[O-])c1 (configuration not stated) [Nitrendipin] | – | 11.2 | – |
| CCCCCCCCCc1ccc(O)cc1 [4-n-Nonylphenol] | 18.1 | 11.6 | – |
| O=S(=O)(c1ccc(O)cc1)c1ccc(O)cc1 [Bisphenol S] | – | 9.36 | – |
| Oc1cc(Cl)ccc1Oc1ccc(Cl)cc1Cl [Triclosan] | – | 11.5 | – |
| Nc1nc2c(ncn2COCCO)c(=O)[nH]1 [Acyclovir] | – | 3.17 | – |
| N#Cc1cc(Br)c(O)c(Br)c1 [Bromoxynil] | – | 8.68 | – |
| S=c1nc[nH]c2nc[nH]c12 [6-Mercaptopurine] | – | 3.32 | – |
| NC(=O)c1ccccc1C(=O)O [Phthalamic acid] | – | 2.24 | – |
| Nc1ccc(S(=O)(=O)O)c(N)c1 [24-diaminobenzenesulfonic acid] | – | 1.48 | – |
